Test results published in patent US11981658B2, “Substituted aminopyridine compounds as EGFR inhibitors” (YUHAN CORPORATION, priority 2021, dated 2024).
Like-named read-outs stand apart in the source and are kept apart here.

Legend:
EGFR L858R/T790M/C797S = EGFR L858R/T790M/C797S (Homo sapiens, UniProt P00533, C797S/L858R/T790M); experiment: Biochemical EGFR kinase inhibition assay (Lance Ultra TR-FRET), triple mutant L858R/T790M/C797S
Outline: (§1)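 Enzyme reactions lasted 1 hour at room temperature with test compounds between 0.003 and 10 μM, followed by 10 mM EDTA quench.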

EGFR Del19/C797S = EGFR Del19/C797S (Homo sapiens, UniProt P00533, C797S/DEL746-750); experiment: Biochemical EGFR kinase inhibition assay (Lance Ultra TR-FRET), double mutant del19/C797S
Outline: as §1

EGFR Del19/T790M/C797S = EGFR Del19/T790M/C797S (Homo sapiens, UniProt P00533, C797S/DEL746-750/T790M); experiment: Biochemical EGFR kinase inhibition assay (Lance Ultra TR-FRET), triple mutant del19/T790M/C797S
Outline: as §1

EGFR L858R/C797S = EGFR L858R/C797S (Homo sapiens, UniProt P00533, C797S/L858R); experiment: Biochemical EGFR kinase inhibition assay (Lance Ultra TR-FRET), double mutant L858R/C797S
Outline: as §1

EGFR wildtype (WT) = EGFR wildtype (WT) (Homo sapiens, UniProt P00533); experiment: Biochemical EGFR kinase inhibition assay (Lance Ultra TR-FRET), wildtype
Outline: as §1

[1] = Km ATP, read-out: IC50 L858R/T790M/C797S (nM) Km ATP
[2] = Km ATP, read-out: IC50 Del19/C797S (nM) Km ATP
[3] = Km ATP, read-out: IC50 Del19/T790M/C797S (nM) Km ATP
[4] = Km ATP, read-out: IC50 L858R/C797S (nM) Km ATP
[5] = Km ATP, read-out: IC50 WT (nM) Km ATP
[6] = IC50 L858R/T790M/C797S (nM), 100 μM ATP
[7] = Km ATP, read-out: IC50 L858R/T790M/C797S (nM), Km ATP
[8] = IC50 Del19/C797S (nM), 100 μM ATP
[9] = Km ATP, read-out: IC50 Del19/C797S (nM), Km ATP
[10] = IC50 Del19/T790M/C797S (nM), 100 μM ATP
[11] = Km ATP, read-out: IC50 Del19/T790M/C797S (nM), Km ATP
[12] = IC50 L858R/C797S (nM), 100 μM ATP
[13] = Km ATP, read-out: IC50 L858R/C797S (nM), Km ATP
[14] = Km ATP, read-out: IC50 WT (nM), Km ATP
[15] = ATP at Km, read-out: IC50 L858R/T790M/C797S (nM), Km ATP
[16] = ATP at Km, read-out: IC50 Del19/C797S (nM), Km ATP
[17] = ATP at Km, read-out: IC50 Del19/T790M/C797S (nM), Km ATP
[18] = ATP at Km, read-out: IC50 L858R/C797S (nM), Km ATP
[19] = ATP at Km, read-out: IC50 WT (nM), Km ATP

Chain of EGFR L858R/T790M/C797S (P00533 25-1210 T790M/C797S/L858R): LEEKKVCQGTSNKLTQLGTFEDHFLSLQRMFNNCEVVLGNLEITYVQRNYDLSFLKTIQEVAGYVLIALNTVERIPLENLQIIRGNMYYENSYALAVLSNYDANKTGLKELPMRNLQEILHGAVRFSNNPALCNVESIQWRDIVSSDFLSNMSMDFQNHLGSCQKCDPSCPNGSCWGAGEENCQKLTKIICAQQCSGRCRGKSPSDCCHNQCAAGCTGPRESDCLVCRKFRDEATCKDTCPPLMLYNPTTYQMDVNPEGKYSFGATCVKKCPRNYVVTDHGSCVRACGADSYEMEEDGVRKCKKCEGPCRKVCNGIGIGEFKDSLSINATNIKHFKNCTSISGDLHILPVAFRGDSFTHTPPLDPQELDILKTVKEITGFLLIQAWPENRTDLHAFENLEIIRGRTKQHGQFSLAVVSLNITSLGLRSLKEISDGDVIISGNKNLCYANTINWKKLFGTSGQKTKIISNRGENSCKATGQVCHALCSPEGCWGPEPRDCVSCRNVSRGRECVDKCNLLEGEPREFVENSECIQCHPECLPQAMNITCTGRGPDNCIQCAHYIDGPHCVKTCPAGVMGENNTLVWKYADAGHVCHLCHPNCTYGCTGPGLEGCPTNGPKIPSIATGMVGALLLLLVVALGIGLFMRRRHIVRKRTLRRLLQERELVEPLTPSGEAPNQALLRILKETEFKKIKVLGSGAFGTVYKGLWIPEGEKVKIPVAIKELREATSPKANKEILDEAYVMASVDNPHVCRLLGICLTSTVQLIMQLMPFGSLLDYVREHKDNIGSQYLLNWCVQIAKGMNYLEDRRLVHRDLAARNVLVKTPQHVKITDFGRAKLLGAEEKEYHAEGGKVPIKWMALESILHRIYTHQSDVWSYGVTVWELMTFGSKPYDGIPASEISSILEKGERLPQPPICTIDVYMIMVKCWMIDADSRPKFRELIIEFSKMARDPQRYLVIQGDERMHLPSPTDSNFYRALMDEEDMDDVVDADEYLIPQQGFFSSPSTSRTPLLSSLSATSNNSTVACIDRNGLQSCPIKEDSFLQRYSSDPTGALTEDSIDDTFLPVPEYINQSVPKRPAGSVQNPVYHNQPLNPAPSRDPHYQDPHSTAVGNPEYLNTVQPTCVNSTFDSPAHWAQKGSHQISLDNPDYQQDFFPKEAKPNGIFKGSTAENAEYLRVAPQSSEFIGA
Chain of EGFR wildtype (WT) (P00533 25-1210): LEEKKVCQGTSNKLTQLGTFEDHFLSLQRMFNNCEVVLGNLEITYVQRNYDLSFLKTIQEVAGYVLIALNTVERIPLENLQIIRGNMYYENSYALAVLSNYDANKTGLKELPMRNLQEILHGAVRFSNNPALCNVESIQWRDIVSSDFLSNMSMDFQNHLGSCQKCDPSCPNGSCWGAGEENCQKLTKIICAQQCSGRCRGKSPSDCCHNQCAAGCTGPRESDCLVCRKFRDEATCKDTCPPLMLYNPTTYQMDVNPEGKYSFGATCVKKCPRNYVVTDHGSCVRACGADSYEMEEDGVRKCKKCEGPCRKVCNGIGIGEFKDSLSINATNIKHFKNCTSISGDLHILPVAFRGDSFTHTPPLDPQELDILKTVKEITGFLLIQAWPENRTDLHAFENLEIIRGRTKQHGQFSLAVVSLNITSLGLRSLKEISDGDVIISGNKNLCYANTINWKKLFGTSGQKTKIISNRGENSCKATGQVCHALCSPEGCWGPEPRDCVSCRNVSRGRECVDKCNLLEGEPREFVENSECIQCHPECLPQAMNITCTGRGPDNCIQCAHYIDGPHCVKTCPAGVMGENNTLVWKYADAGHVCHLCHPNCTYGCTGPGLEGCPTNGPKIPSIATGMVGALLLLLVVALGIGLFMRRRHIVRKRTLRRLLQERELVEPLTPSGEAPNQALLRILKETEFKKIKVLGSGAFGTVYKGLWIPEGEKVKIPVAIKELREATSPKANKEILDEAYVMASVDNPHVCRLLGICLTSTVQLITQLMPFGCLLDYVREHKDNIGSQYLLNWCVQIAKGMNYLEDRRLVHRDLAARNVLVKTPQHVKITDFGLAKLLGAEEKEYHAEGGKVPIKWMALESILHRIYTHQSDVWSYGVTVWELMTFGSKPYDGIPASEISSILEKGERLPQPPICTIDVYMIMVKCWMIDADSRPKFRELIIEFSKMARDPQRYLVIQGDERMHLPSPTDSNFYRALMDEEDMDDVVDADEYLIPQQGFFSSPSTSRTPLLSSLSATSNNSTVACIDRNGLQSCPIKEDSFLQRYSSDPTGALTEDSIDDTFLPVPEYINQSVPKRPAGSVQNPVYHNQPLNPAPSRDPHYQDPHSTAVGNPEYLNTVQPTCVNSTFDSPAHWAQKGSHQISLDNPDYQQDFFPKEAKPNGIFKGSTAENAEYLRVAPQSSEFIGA
Chain of EGFR Del19/T790M/C797S (P00533 with tags, fused parts or gaps DEL746-750/T790M/C797S): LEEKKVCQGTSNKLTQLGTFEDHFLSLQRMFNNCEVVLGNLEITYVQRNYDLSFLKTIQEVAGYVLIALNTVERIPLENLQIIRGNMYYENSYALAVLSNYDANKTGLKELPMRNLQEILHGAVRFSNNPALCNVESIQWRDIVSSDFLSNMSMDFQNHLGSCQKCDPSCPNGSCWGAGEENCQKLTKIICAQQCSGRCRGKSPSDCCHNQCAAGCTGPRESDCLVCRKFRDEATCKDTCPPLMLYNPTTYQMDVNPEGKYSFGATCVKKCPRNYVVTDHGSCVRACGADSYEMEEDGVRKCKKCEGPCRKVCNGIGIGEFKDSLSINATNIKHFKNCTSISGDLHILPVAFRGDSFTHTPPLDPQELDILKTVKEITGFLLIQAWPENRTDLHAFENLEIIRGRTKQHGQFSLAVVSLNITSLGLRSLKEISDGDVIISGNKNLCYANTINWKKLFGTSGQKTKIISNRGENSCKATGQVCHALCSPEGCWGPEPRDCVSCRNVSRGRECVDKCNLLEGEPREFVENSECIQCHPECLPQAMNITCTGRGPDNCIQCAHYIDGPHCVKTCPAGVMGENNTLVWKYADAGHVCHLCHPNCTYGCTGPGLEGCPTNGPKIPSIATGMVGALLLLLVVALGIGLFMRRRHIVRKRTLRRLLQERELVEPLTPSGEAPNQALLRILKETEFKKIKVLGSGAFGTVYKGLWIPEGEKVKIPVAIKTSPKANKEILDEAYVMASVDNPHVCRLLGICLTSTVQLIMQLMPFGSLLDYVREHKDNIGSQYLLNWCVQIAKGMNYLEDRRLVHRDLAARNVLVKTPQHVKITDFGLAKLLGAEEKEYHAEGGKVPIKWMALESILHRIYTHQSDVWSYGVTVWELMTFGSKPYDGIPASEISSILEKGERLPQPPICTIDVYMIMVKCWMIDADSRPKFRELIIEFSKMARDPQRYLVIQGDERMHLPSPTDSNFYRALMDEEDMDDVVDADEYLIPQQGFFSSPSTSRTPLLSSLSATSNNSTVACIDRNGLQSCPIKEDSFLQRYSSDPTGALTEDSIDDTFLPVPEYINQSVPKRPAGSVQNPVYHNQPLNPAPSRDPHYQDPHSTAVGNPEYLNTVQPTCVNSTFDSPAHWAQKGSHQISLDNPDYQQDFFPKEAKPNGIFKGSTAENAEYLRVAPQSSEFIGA
Chain of EGFR Del19/C797S (P00533 with tags, fused parts or gaps DEL746-750/C797S): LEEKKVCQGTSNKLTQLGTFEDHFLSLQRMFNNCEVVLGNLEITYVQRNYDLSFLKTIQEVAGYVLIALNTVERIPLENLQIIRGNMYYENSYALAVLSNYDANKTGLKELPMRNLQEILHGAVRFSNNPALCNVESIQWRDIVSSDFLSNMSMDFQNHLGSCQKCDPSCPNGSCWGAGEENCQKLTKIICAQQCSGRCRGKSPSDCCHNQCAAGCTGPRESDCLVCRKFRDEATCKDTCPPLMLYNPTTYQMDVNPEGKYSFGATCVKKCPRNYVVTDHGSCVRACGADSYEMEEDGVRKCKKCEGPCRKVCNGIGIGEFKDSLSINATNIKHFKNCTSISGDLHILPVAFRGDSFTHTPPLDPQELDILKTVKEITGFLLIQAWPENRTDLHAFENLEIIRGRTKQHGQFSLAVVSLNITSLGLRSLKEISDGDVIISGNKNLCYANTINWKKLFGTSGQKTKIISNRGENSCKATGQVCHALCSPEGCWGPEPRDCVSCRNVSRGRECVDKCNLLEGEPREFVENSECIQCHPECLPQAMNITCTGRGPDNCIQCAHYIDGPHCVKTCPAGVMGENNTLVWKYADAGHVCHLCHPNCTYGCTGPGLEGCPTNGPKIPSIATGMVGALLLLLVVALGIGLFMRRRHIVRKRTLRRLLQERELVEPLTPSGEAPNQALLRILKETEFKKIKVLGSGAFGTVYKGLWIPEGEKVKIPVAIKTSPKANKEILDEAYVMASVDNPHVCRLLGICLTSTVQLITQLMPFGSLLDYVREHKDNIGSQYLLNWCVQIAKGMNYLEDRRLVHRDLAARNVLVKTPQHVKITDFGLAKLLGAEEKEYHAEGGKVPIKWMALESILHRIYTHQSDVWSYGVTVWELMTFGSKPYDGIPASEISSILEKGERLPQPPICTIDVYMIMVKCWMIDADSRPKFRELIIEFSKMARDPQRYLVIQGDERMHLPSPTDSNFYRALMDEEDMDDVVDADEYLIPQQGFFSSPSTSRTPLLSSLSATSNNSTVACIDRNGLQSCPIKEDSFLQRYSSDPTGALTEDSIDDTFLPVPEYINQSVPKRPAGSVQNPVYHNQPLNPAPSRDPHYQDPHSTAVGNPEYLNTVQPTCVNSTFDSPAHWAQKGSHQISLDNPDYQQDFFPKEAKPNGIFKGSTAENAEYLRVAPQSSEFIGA

SMILES	IC50 (EGFR L858R/T790M/C797S; [1]) [nM]	IC50 (EGFR Del19/C797S; [2]) [nM]	IC50 (EGFR Del19/T790M/C797S; [3]) [nM]	IC50 (EGFR L858R/C797S; [4]) [nM]	IC50 (EGFR wildtype (WT); [5]) [nM]	IC50 (EGFR L858R/T790M/C797S; [6]) [nM]	IC50 (EGFR Del19/C797S; [8]) [nM]	IC50 (EGFR Del19/T790M/C797S; [10]) [nM]	IC50 (EGFR L858R/C797S; [12]) [nM]	IC50 (EGFR wildtype (WT); IC50 WT (nM), 100 μM ATP) [nM]	further results
CN(C)C(=O)Cn1cc(C#Cc2cnc(Nc3ccnc(-c4cnn(S(=O)(=O)C5CC5)c4)n3)cc2N[C@H]2CC[C@@](C)(O)CC2)cn1 [Example 221, 2-(4-((6-((2-(1-(Cyclopropylsulfonyl)-1H-pyrazol-4-yl)pyrimidin-4-yl)amino)-4-(((1s,4s)-4-hydroxy-4-methylcyclohexyl)amino)pyridin-3-yl)ethynyl)-1H-pyrazol-1-yl)-N,N-dimethylacetamide]	0.8	6.3	2.9	3.8	65	–	–	–	–	–	IC50 (EGFR L858R/T790M/C797S; read-out: IC50 L858R/T790M/C797S (nM), 100 μM ATP): 2.2 nM; IC50 (EGFR Del19/C797S; read-out: IC50 Del19/C797S (nM), 100 μM ATP): 8.4 nM; IC50 (EGFR Del19/T790M/C797S; read-out: IC50 Del19/T790M/C797S (nM), 100 μM ATP): 2 nM; IC50 (EGFR L858R/C797S; read-out: IC50 L858R/C797S (nM), 100 μM ATP): 33 nM; IC50 (EGFR wildtype (WT); read-out: IC50 WT (nM), 100 μM ATP): > 10000 nM
O=S(=O)(C1CC1)n1cc(-c2nccc(Nc3cc(N[C@H]4CCC[C@H](O)C4)c(C#Cc4cnn(CC(F)(F)F)c4)cn3)n2)cn1 [Example 341, (1S,3S)-3-((2-((2-(1-(Cyclopropylsulfonyl)-1H-pyrazol-4-yl)pyrimidin-4-yl)amino)-5-((1-(2,2,2-trifluoroethyl)-1H-pyrazol-4-yl)ethynyl)pyridin-4-yl)amino)cyclohexan-1-ol]	–	–	–	–	–	4	34.2	3.1	128	> 10000	IC50 (EGFR L858R/T790M/C797S; [7]): 0.9 nM; IC50 (EGFR Del19/C797S; [9]): 21.4 nM; IC50 (EGFR Del19/T790M/C797S; [11]): 2.5 nM; IC50 (EGFR L858R/C797S; [13]): 42.4 nM; IC50 (EGFR wildtype (WT); [14]): 163 nM
CN(C)Cc1ccc(CNc2cc(Nc3ccnc(-c4cnn(S(=O)(=O)C5CC5)c4)n3)ncc2C#Cc2cnn(CCF)c2)cc1 [Example 51, N^2-(2-(1-(Cyclopropylsulfonyl)-1H-pyrazol-4-yl)pyrimidin-4-yl)-N^4-(4-((dimethylamino)methyl)benzyl)-5-((1-(2-fluoroethyl)-1H-pyrazol-4-yl)ethynyl)pyridine-2,4-diamine]	3.2	68.6	0.9	49.1	262	–	–	–	–	–	–
CN(C)CCCn1cc(C#Cc2cnc(Nc3ccnc(-c4cnn(S(=O)(=O)C5CC5)c4)n3)cc2N2CCC(NCCF)CC2)cn1 [Example 145, 2-(1-(Cyclopropylsulfonyl)-1H-pyrazol-4-yl)-N-(5-((1-(3-(dimethylamino)propyl)-1H-pyrazol-4-yl)ethynyl)-4-(4-((2-fluoroethyl)amino)piperidin-1-yl)pyridin-2-yl)pyrimidin-4-amine]	0.1	0.6	0.2	0.5	14.2	0.3	0.7	0.2	23.4	5550	–
O=S(=O)(C1CC1)n1cc(-c2nccc(Nc3cc(N[C@H]4CCC[C@@H](O)C4)c(C#Cc4ccc(CN5CCOCC5)cc4)cn3)n2)cn1 [Example 159, (1R,3S)-3-((2-((2-(1-(Cyclopropylsulfonyl)-1H-pyrazol-4-yl)pyrimidin-4-yl)amino)-5-((4-(morpholinomethyl)phenyl)ethynyl)pyridin-4-yl)amino)cyclohexan-1-ol]	–	–	–	–	–	9.6	21.7	10.6	98.5	> 10000	IC50 (EGFR L858R/T790M/C797S; [15]): 3.4 nM; IC50 (EGFR Del19/C797S; [16]): 7.7 nM; IC50 (EGFR Del19/T790M/C797S; [17]): 8.3 nM; IC50 (EGFR L858R/C797S; [18]): 7.4 nM; IC50 (EGFR wildtype (WT); [19]): 85.5 nM
Cn1cc(C#Cc2cnc(Nc3ccnc(-c4cnn(S(=O)(=O)C5CC5)c4)n3)cc2N2CCC(CO)CC2)cn1 [Example 29, (1-(2-((2-(1-(Cyclopropylsulfonyl)-1H-pyrazol-4-yl)pyrimidin-4-yl)amino)-5-((1-methyl-1H-pyrazol-4-yl)ethynyl)pyridin-4-yl)piperidin-4-yl)methanol]	–	–	–	–	–	2.3	2.7	1.8	28.1	8000	–
O=S(=O)(C1CC1)n1cc(-c2nccc(Nc3cc(N[C@H]4CC[C@@H](O)CC4)c(C#Cc4ccc(CN5CCOCC5)cn4)cn3)n2)cn1 [Example 184, (1s,4s)-4-((2-((2-(1-(Cyclopropylsulfonyl)-1H-pyrazol-4-yl)pyrimidin-4-yl)amino)-5-((5-(morpholinomethyl)pyridin-2-yl)ethynyl)pyridin-4-yl)amino)cyclohexan-1-ol]	–	–	–	–	–	2.1	3.5	1.5	94.1	> 10000	IC50 (EGFR L858R/T790M/C797S; [15]): 0.2 nM; IC50 (EGFR Del19/C797S; [16]): 2.3 nM; IC50 (EGFR Del19/T790M/C797S; [17]): 0.4 nM; IC50 (EGFR L858R/C797S; [18]): 3.2 nM; IC50 (EGFR wildtype (WT); [19]): 11.7 nM
CS(=O)(=O)N1CCC(C#Cc2cnc(Nc3ccnc(-c4cnn(S(=O)(=O)C5CC5)c4)n3)cc2N[C@H]2CC[C@@H](CO)CC2)CC1 [Example 387, ((1s,4s)-4-((2-((2-(1-(Cyclopropylsulfonyl)-1H-pyrazol-4-yl)pyrimidin-4-yl)amino)-5-((1-(methylsulfonyl)piperidin-4-yl)ethynyl)pyridin-4-yl)amino)cyclohexyl)methanol]	–	–	–	–	–	0.7	4.4	0.6	36.7	> 10000	IC50 (EGFR L858R/T790M/C797S; [7]): 0.2 nM; IC50 (EGFR Del19/C797S; [9]): 1.2 nM; IC50 (EGFR Del19/T790M/C797S; [11]): 0.3 nM; IC50 (EGFR L858R/C797S; [13]): 2.7 nM; IC50 (EGFR wildtype (WT); [14]): 9.5 nM
CN(C)CC1CCN(c2cc(Nc3ccnc(-c4cnn(S(=O)(=O)C5CC5)c4)n3)ncc2C#Cc2cnn(C)c2)CC1 [Example 295, 2-(1-(Cyclopropylsulfonyl)-1H-pyrazol-4-yl)-N-(4-(4-((dimethylamino)methyl)piperidin-1-yl)-5-((1-methyl-1H-pyrazol-4-yl)ethynyl)pyridin-2-yl)pyrimidin-4-amine]	–	–	–	–	–	2.4	9.9	0.8	68.2	> 10000	–
O=C(N1CCC(C#Cc2cnc(Nc3ccnc(-c4cnn(S(=O)(=O)C5CC5)c4)n3)cc2NC2CCC(CO)CC2)C1)C(F)(F)F (stereo not drawn) [Example 408, 1-(3-((6-((2-(1-(Cyclopropylsulfonyl)-1H-pyrazol-4-yl)pyrimidin-4-yl)amino)-4-(((1s,4s)-4-(hydroxymethyl)cyclohexyl)amino)pyridin-3-yl)ethynyl)pyrrolidin-1-yl)-2,2,2-trifluoroethan-1-one]	–	–	–	–	–	0.2	2.1	0.1	26	6570	–
CN(C)CCCn1cc(C#Cc2cnc(Nc3ccnc(-c4cnn(S(=O)(=O)C5CC5)c4)n3)cc2N2CCC(F)(CO)CC2)cn1 [Example 121, (1-(2-((2-(1-(Cyclopropylsulfonyl)-1H-pyrazol-4-yl)pyrimidin-4-yl)amino)-5-((1-(3-(dimethylamino)propyl)-1H-pyrazol-4-yl)ethynyl)pyridin-4-yl)-4-fluoropiperidin-4-yl)methanol]	0.1	0.3	0.3	0.3	3.1	0.3	0.5	0.3	4.1	783	–
